Laboratory results as given in patent US12552772B2, “2-pyrazole anilines and related analogs for inhibiting YAP/TAZ-TEAD” (KATHOLIEKE UNIVERSITEIT LEUVEN, priority 2021, dated 2026).

tested on: YAP/TAZ-TEAD transcription; experiment: Reporter gene assay for measuring the inhibition of YAP/TAZ-TEAD transcription (TEAD-responsive element luciferase reporter in Hek293T cells); assay type: cell-based; details: Homo sapiens, HEK-293T, 24 hours incubation
Protocol: Hek293T cells are cultured in DMEM supplemented with 10% fetal bovine serum, Sodium pyruvate, Sodium bicarbonate, L-glutamine. The cells are harvested and transiently transfected with TEAD-responsive element luciferase reporter. Transfected cells are plated in 384-wells plate containing pre-diluted compounds. After 24 hours incubation at 37° C./5% CO2, assay plates were cooled down to RT and levelled to an equal volume per well, prior to the addition of 25 uL luciferase substrate SteadyLite (Perkin Elmer)/well. The plate was shaken for 10 min at 600 rpm, centrifuged for 1 min at 500 rpm and measured with an Envision reader (PerkinElmer). The amount of relative light units produced by the TEAD reporter is used to calculated percent of inhibition.
The percent of reporter inhibition was calculated in the presence of a positive control inhibitor (100% inhibition) versus a condition with the presence of the vehicle basal activity of the reporter (0% inhibition). The ability of a test compound to inhibit this activity was determined as: Percentage inhibition=[1−((RLU determined in the presence of vehicle−RLU determined for sample with test compound present) divided by (RLU determined in the presence of vehicle−RLU determined for sample with positive control inhibitor))]*100
The activities of the example compounds tested are depicted in the table below. The activity ranges A, B and C refer to EC50 values in the reporter gene assay as described as follows: “A”: EC50<1 μM; “B”: 1 μM s EC50≤20 μM and “C”: EC50>20 μM, NT=not tested.

Structure (SMILES)	EC50 [µM]
c1ccc(-c2cccc(-c3ccn(CCN4CCOCC4)n3)c2)cc1 [compound 025, 4-(2-(3-([1,1′-biphenyl]-3-yl)-1H-pyrazol-1-yl)ethyl)morpholine]	1 to 20
c1ccc(-c2cccc(-c3ccn(CC4CCOCC4)n3)c2)cc1 [compound 026, 3-([1,1′-biphenyl]-3-yl)-1-((tetrahydro-2H-pyran-4-yl)methyl)-1H-pyrazole]	> 20
c1ccc(-c2cccc(-c3ccn(CC4CCNCC4)n3)c2)cc1 [compound 030, 4-((3-([1,1′-biphenyl]-3-yl)-1H-pyrazol-1-yl)methyl)piperidine]	1 to 20
CC(=O)N1CCC(Cn2ccc(-c3cccc(-c4ccccc4)c3)n2)CC1 [compound 031, 1-(4-((3-([1,1′-biphenyl]-3-yl)-1H-pyrazol-1-yl)methyl)piperidin-1-yl)ethan-1-one]	1 to 20
CN1CCC(Cn2ccc(-c3cccc(-c4ccccc4)c3)n2)CC1 [compound 032, 4-((3-([1,1′-biphenyl]-3-yl)-1H-pyrazol-1-yl)methyl)-1-methylpiperidine]	1 to 20
c1ccc(Nc2cccc(-c3ccn(Cc4ccccn4)n3)c2)cc1 [compound 044, N-phenyl-3-(1-(pyridin-2-ylmethyl)-1H-pyrazol-3-yl) aniline]	1 to 20
c1ccc(Nc2cccc(-c3ccn(Cc4cccnc4)n3)c2)cc1 [compound 045, N-phenyl-3-(1-(pyridin-3-ylmethyl)-1H-pyrazol-3-yl)aniline]	1 to 20
c1ccc(Nc2cccc(-c3ccn(CCc4cccnc4)n3)c2)cc1 [compound 046, N-phenyl-3-(1-(2-(pyridin-3-yl)ethyl)-1H-pyrazol-3-yl)aniline]	1 to 20
c1ccc(-c2cccc(-c3nnn(Cc4cccnc4)n3)c2)cc1 [compound 047, 3-((5-([1,1′-biphenyl]-3-yl)-2H-tetrazol-2-yl)methyl)pyridine]	1 to 20
O=C(Cc1cccnc1)Nc1cccc(-c2ccccc2)c1 [compound 048, N—([1,1′-biphenyl]-3-yl)-2-(pyridin-3-yl)acetamide]	1 to 20
O=S(=O)(F)CCNc1ccc(-c2ccccc2)cc1-c1ccn(Cc2cccnc2)n1 [compound 049, 2-((3-(1-(pyridin-3-ylmethyl)-1H-pyrazol-3-yl)-[1,1′-biphenyl]-4-yl)amino)ethane-1-sulfonyl fluoride]	1 to 20
CNS(=O)(=O)CCNc1ccc(-c2ccccc2)cc1-c1ccn(Cc2cccnc2)n1 [compound 050, N-methyl-2-((3-(1-(pyridin-3-ylmethyl)-1H-pyrazol-3-yl)-[1,1′-biphenyl]-4-yl)amino)ethane-1-sulfonamide]	< 1
O=S1(=O)CCN(c2ccc(-c3ccccc3)cc2-c2ccn(Cc3cccnc3)n2)CC1 [compound 051, 4-(3-(1-(pyridin-3-ylmethyl)-1H-pyrazol-3-yl)-[1,1′-biphenyl]-4-yl)thiomorpholine 1,1-dioxide]	> 20
CN(C)S(=O)(=O)CCNc1ccc(-c2ccccc2)cc1-c1ccn(Cc2cccnc2)n1 [compound 053, N,N-dimethyl-2-((3-(1-(pyridin-3-ylmethyl)-1H-pyrazol-3-yl)-[1,1′-biphenyl]-4-yl)amino)ethane-1-sulfonamide]	< 1
O=S1(=O)CCN(c2cc(-c3ccccc3)cc(-c3ccn(Cc4cccnc4)n3)c2)CC1 [compound 055, 4-(5-(1-(pyridin-3-ylmethyl)-1H-pyrazol-3-yl)-[1,1′-biphenyl]-3-yl)thiomorpholine 1,1-dioxide]	1 to 20
CNS(=O)(=O)CCNc1ccc(-c2ccccc2)cc1-c1ccn(C)n1 [compound 056, N-methyl-2-((3-(1-methyl-1H-pyrazol-3-yl)-[1,1′-biphenyl]-4-yl)amino)ethane-1-sulfonamide]	< 1
Cn1ccc(-c2cc(-c3ccccc3)ccc2NCCS(=O)(=O)O)n1 [compound 057, 2-((3-(1-methyl-1H-pyrazol-3-yl)-[1,1′-biphenyl]-4-yl)amino)ethane-1-sulfonic acid]	> 20
Cn1ccc(-c2cc(-c3ccccc3)ccc2NCCS(N)(=O)=O)n1 [compound 058, 2-((3-(1-methyl-1H-pyrazol-3-yl)-[1,1′-biphenyl]-4-yl)amino)ethane-1-sulfonamide]	< 1
O=C(O)CCNc1ccc(-c2ccccc2)cc1-c1ccn(Cc2cccnc2)n1 [compound 059, 3-((3-(1-(pyridin-3-ylmethyl)-1H-pyrazol-3-yl)-[1,1′-biphenyl]-4-yl)amino)propanoic acid]	< 1
CNC(=O)CCNc1ccc(-c2ccccc2)cc1-c1ccn(Cc2cccnc2)n1 [compound 060, N-methyl-3-((3-(1-(pyridin-3-ylmethyl)-1H-pyrazol-3-yl)-[1,1′-biphenyl]-4-yl)amino)propanamide]	< 1
O=C(O)CCNc1cc(-c2ccccc2)cc(-c2ccn(Cc3cccnc3)n2)c1 [compound 061, 3-((5-(1-(pyridin-3-ylmethyl)-1H-pyrazol-3-yl)-[1,1′-biphenyl]-3-yl)amino)propanoic acid]	> 20
CNC(=O)CCNc1cc(-c2ccccc2)cc(-c2ccn(Cc3cccnc3)n2)c1 [compound 062, N-methyl-3-((5-(1-(pyridin-3-ylmethyl)-1H-pyrazol-3-yl)-[1,1′-biphenyl]-3-yl)amino)propanamide]	1 to 20
Cn1ccc(-c2cc(-c3ccccc3)ccc2NCCC(=O)O)n1 [compound 063, 3-((3-(1-methyl-1H-pyrazol-3-yl)-[1,1′-biphenyl]-4-yl)amino)propanoic acid]	< 1
CNC(=O)CCNc1ccc(-c2ccccc2)cc1-c1ccn(C)n1 [compound 064, N-methyl-3-((3-(1-methyl-1H-pyrazol-3-yl)-[1,1′-biphenyl]-4-yl)amino)propanamide]	< 1
CSCCNc1ccc(-c2ccccc2)cc1-c1ccn(Cc2cccnc2)n1 [compound 065, N-(2-(methylthio)ethyl)-3-(1-(pyridin-3-ylmethyl)-1H-pyrazol-3-yl)-[1,1′-biphenyl]-4-amine]	1 to 20

The next lines start with the values.

EC50 [µM]	Structure (SMILES)
1 to 20	N#Cc1ccc(Cn2ccc(-c3cccc(-c4ccccc4)c3)n2)cn1 [compound 027, 5-((3-([1,1′-biphenyl]-3-yl)-1H-pyrazol-1-yl)methyl)picolinonitrile]
1 to 20	NC(=O)c1ccc(Cn2ccc(-c3cccc(-c4ccccc4)c3)n2)cn1 [compound 028, 5-((3-([1,1′-biphenyl]-3-yl)-1H-pyrazol-1-yl)methyl)picolinamide]
1 to 20	NCc1ccc(Cn2ccc(-c3cccc(-c4ccccc4)c3)n2)cn1 [compound 029, (5-((3-([1,1′-biphenyl]-3-yl)-1H-pyrazol-1-yl)methyl)pyridin-2-yl)methanamine]
1 to 20	C=Cc1ccc(Cn2ccc(-c3cccc(-c4ccccc4)c3)n2)cn1 [compound 033, 5-((3-([1,1′-biphenyl]-3-yl)-1H-pyrazol-1-yl)methyl)-2-vinylpyridine]
> 20	Nc1ccc(Cn2ccc(-c3cccc(-c4ccccc4)c3)n2)cn1 [compound 034, 5-((3-([1,1′-biphenyl]-3-yl)-1H-pyrazol-1-yl)methyl)pyridin-2-amine]
1 to 20	C=Cc1cc(Cn2ccc(-c3cccc(-c4ccccc4)c3)n2)ccn1 [compound 035, 4-((3-([1,1′-biphenyl]-3-yl)-1H-pyrazol-1-yl)methyl)-2-vinylpyridine]
1 to 20	CNc1cc(Cn2ccc(-c3cccc(-c4ccccc4)c3)n2)ccn1 [compound 036, 4-((3-([1,1′-biphenyl]-3-yl)-1H-pyrazol-1-yl)methyl)-N-methylpyridin-2-amine]
1 to 20	C=CC(=O)Nc1ccc(Cn2ccc(-c3cccc(-c4ccccc4)c3)n2)cn1 [compound 037, N-(5-((3-([1,1′-biphenyl]-3-yl)-1H-pyrazol-1-yl)methyl)pyridin-2-yl)acrylamide]
> 20	O=C1CCN1c1ccc(Cn2ccc(-c3cccc(-c4ccccc4)c3)n2)cn1 [compound 038, 1-(5-((3-([1,1′-biphenyl]-3-yl)-1H-pyrazol-1-yl)methyl)pyridin-2-yl)azetidin-2-one]
1 to 20	CCC(=O)Nc1ccc(Cn2ccc(-c3cccc(-c4ccccc4)c3)n2)cn1 [compound 039, N-(5-((3-([1,1′-biphenyl]-3-yl)-1H-pyrazol-1-yl)methyl)pyridin-2-yl)propionamide]
> 20	O=C(O)c1cncc(Cn2ccc(-c3cccc(-c4ccccc4)c3)n2)c1 [compound 040, 5-((3-([1,1′-biphenyl]-3-yl)-1H-pyrazol-1-yl)methyl)nicotinic acid]
1 to 20	NC(=O)c1cncc(Cn2ccc(-c3cccc(-c4ccccc4)c3)n2)c1 [compound 041, 5-((3-([1,1′-biphenyl]-3-yl)-1H-pyrazol-1-yl)methyl)nicotinamide]
> 20	O=C(O)c1ccncc1Cn1ccc(-c2cccc(-c3ccccc3)c2)n1 [compound 042, 3-((3-([1,1′-biphenyl]-3-yl)-1H-pyrazol-1-yl)methyl)isonicotinic acid]
1 to 20	NC(=O)c1ccncc1Cn1ccc(-c2cccc(-c3ccccc3)c2)n1 [compound 043, 3-((3-([1,1′-biphenyl]-3-yl)-1H-pyrazol-1-yl)methyl)isonicotinamide]
